These results are taken from paper PMC12366332 (Applied and Environmental Microbiology, 2025).

Read-outs that look alike come from different tables or passages of the source. Square brackets hold non-standard residues; d marks the D form. Peptide text beside a SMILES is read from it. * marks the point of attachment. Butyryl = CCCC(=O)*

In series [1] the test system is horse erythrocytes. The following applies: red cells of horse, 50 µM.
For series [2], the system named is X. fastidiosa subsp. fastidiosa IVIA 5387.2.
Series [3] has as its system E. coli 0111:B4 LPS. The class given is biochemical, Escherichia coli.
For series [4], the system named is tobacco leaves. The conditions noted are these: 150 µM; after 48 h.

Regarding `CCCC(=O)NCCCC[C@H](NC(=O)[C@H](CC(C)C)NC(=O)[C@@H](NC(=O)[C@H](CCCCN)NC(=O)[C@H](CCCCN)NC(=O)[C@@H](Cc1ccccc1)NC(=O)[C@H](CC(C)C)NC(=O)[C@H](CCCCN)NC(=O)[C@H](CCCCN)NC(C)=O)[C@@H](C)CC)C(=O)N[C@@H](Cc1ccc(O)cc1)C(=O)N[C@@H](CC(C)C)C(N)=O` [BP499, Ac-KKLfKKILK(COC3H7)YL-NH2], the “Hemolytic activity (%)” value in series [1] is 2%. In addition, in series [2] (3.1 µM), the “Bactericidal activity Reduction in viability (Log N0/N)” value is given as 0,63 Log N0/N. Also, the “Bactericidal activity Level” value in series [2] (50 µM) was “High (key: Very High: very high bactericidal activity (>2.5 log); High: high bactericidal activity (between 2.0 and 2.5 log); Moderate: a moderate activity (between 1.5 and 2.0 log); Low: low active (<1.5 log))”. Also, the “LPS neutralization Ratio (treatment/NTC)” value in series [3] is 0,34. In addition, the “Phytotoxicity: diameter of the lesion” value in series [4] stood at 7 mm.

For `CCCC(=O)NCCCC[C@H](NC(=O)[C@H](CCCCN)NC(=O)[C@H](CC(C)C)NC(=O)[C@@H](NC(=O)[C@H](CCCCN)NC(=O)[C@H](CCCCN)NC(=O)[C@H](Cc1c[nH]cn1)NC(=O)[C@H](CC(C)C)NC(=O)[C@H](CCCCN)NC(=O)[C@H](CCCCN)NC(C)=O)[C@@H](C)CC)C(=O)N[C@@H](CC(C)C)C(N)=O` [BP501, Ac-KKLHKKILKK(COC3H7)L-NH2] (Ac-KKLHKKILKK(Butyryl)L-NH2), the “Hemolytic activity (%)” value in series [1] turned out to be 2%. Also, in series [2] (50 µM), the “Bactericidal activity Level” value is “Low (key: Very High: very high bactericidal activity (>2.5 log); High: high bactericidal activity (between 2.0 and 2.5 log); Moderate: a moderate activity (between 1.5 and 2.0 log); Low: low active (<1.5 log))”; the “Bactericidal activity Reduction in viability (Log N0/N)” value is 0,30 Log N0/N. The “LPS neutralization Ratio (treatment/NTC)” value in series [3] is reported as 0,71. Besides, in series [4], the “Phytotoxicity: diameter of the lesion” value was 0 mm.

Consider `CCCC(=O)NCCCC[C@H](NC(C)=O)C(=O)N[C@@H](CCCCN)C(=O)N[C@@H](CC(C)C)C(=O)N[C@H](Cc1ccccc1)C(=O)N[C@@H](CCCCN)C(=O)N[C@@H](CCCCN)C(=O)N[C@H](C(=O)N[C@@H](CC(C)C)C(=O)N[C@@H](CCCCN)C(=O)N[C@@H](Cc1ccc(O)cc1)C(=O)N[C@@H](CC(C)C)C(N)=O)[C@@H](C)CC` [BP545, Ac-K(COC3H7)KLfKKILKYL-NH2], for which, in series [1], the “Hemolytic activity (%)” value turned out to be 5%. In series [2] (12.5 µM), the “Bactericidal activity Reduction in viability (Log N0/N)” value is 0,54 Log N0/N. Further, the “Bactericidal activity Level” value in series [2] (50 µM) was “High (key: Very High: very high bactericidal activity (>2.5 log); High: high bactericidal activity (between 2.0 and 2.5 log); Moderate: a moderate activity (between 1.5 and 2.0 log); Low: low active (<1.5 log))”. In addition, the “LPS neutralization Ratio (treatment/NTC)” value in series [3] is recorded as 0,56. For the same compound, the “Phytotoxicity: diameter of the lesion” value in series [4] was determined as 4 mm.

As to `CCCC(=O)NCCCC[C@H](NC(=O)[C@H](CCCCN)NC(=O)[C@H](CCCCN)NC(C)=O)C(=O)N[C@H](Cc1ccccc1)C(=O)N[C@@H](CCCCN)C(=O)N[C@@H](CCCCN)C(=O)N[C@@H](CCCCN)C(=O)N[C@@H](CC(C)C)C(=O)N[C@@H](CCCCN)C(=O)N[C@@H](Cc1ccc(O)cc1)C(=O)N[C@@H](CC(C)C)C(N)=O` [BP546, Ac-KKK(COC3H7)fKKKLKYL-NH2] (Ac-KKK(Butyryl)[dF]KKKLKYL-NH2), in series [1], the “Hemolytic activity (%)” value came to 0%. Moreover, in series [2] (50 µM), the “Bactericidal activity Level” value is “Low (key: Very High: very high bactericidal activity (>2.5 log); High: high bactericidal activity (between 2.0 and 2.5 log); Moderate: a moderate activity (between 1.5 and 2.0 log); Low: low active (<1.5 log))”; the “Bactericidal activity Reduction in viability (Log N0/N)” value is recorded as 0,34 Log N0/N. Further, the “LPS neutralization Ratio (treatment/NTC)” value in series [3] is recorded as 0,73. In addition, in series [4], the “Phytotoxicity: diameter of the lesion” value is listed as 0 mm.

As for `CCCC(=O)NCCCC[C@@H](NC(=O)[C@H](CC(C)C)NC(=O)[C@H](CCCCN)NC(=O)[C@H](CCCCN)NC(C)=O)C(=O)N[C@@H](CCCCN)C(=O)N[C@@H](CCCCN)C(=O)N[C@H](C(=O)N[C@@H](CC(C)C)C(=O)N[C@H](C(=O)N[C@@H](Cc1ccc(O)cc1)C(=O)N[C@@H](CC(C)C)C(N)=O)[C@@H](C)CC)[C@@H](C)CC` [BP547, Ac-KKLk(COC3H7)KKILIYL-NH2], in series [1], the “Hemolytic activity (%)” value turned out to be 0%. In series [2] (50 µM), the “Bactericidal activity Level” value was “Low (key: Very High: very high bactericidal activity (>2.5 log); High: high bactericidal activity (between 2.0 and 2.5 log); Moderate: a moderate activity (between 1.5 and 2.0 log); Low: low active (<1.5 log))”; the “Bactericidal activity Reduction in viability (Log N0/N)” value was 0,05 Log N0/N. For the same compound, in series [3], the “LPS neutralization Ratio (treatment/NTC)” value was 0,99. Also, the “Phytotoxicity: diameter of the lesion” value in series [4] came out at 2 mm.

With `CCCC(=O)NCCCC[C@H](NC(=O)[C@H](CCCCN)NC(=O)[C@H](CCCCN)NC(=O)[C@@H](Cc1ccccc1)NC(=O)[C@H](CC(C)C)NC(=O)[C@H](CCCCN)NC(=O)[C@H](CCCCN)NC(C)=O)C(=O)N[C@@H](CC(C)C)C(=O)N[C@@H](CCCCN)C(=O)N[C@@H](Cc1ccc(O)cc1)C(=O)N[C@@H](CC(C)C)C(N)=O` [BP548, Ac-KKLfKKK(COC3H7)LKYL-NH2], the “Hemolytic activity (%)” value in series [1] is reported as 0%. In series [2] (50 µM), the “Bactericidal activity Level” value is “Low (key: Very High: very high bactericidal activity (>2.5 log); High: high bactericidal activity (between 2.0 and 2.5 log); Moderate: a moderate activity (between 1.5 and 2.0 log); Low: low active (<1.5 log))”; the “Bactericidal activity Reduction in viability (Log N0/N)” value was 0,28 Log N0/N. Further, in series [3], the “LPS neutralization Ratio (treatment/NTC)” value is on record as 0,65. The “Phytotoxicity: diameter of the lesion” value in series [4] turned out to be 6 mm.

Consider `CCCC(=O)NCCCC[C@H](NC(=O)[C@H](CCCCN)NC(=O)[C@H](CCCCN)NC(C)=O)C(=O)N[C@H](Cc1ccccc1)C(=O)N[C@@H](CCCCN)C(=O)N[C@@H](CCCCN)C(=O)N[C@H](C(=O)N[C@@H](CC(C)C)C(=O)N[C@@H](CCCCN)C(=O)N[C@@H](Cc1ccc(O)cc1)C(=O)N[C@@H](CC(C)C)C(N)=O)[C@@H](C)CC` [BP549, Ac-KKK(COC3H7)fKKILKYL-NH2], for which the “Hemolytic activity (%)” value in series [1] was 1%. In series [2] (50 µM), the “Bactericidal activity Level” value was “Low (key: Very High: very high bactericidal activity (>2.5 log); High: high bactericidal activity (between 2.0 and 2.5 log); Moderate: a moderate activity (between 1.5 and 2.0 log); Low: low active (<1.5 log))”; the “Bactericidal activity Reduction in viability (Log N0/N)” value is listed as 1,19 Log N0/N. For the same compound, in series [3], the “LPS neutralization Ratio (treatment/NTC)” value was 1,10. In addition, in series [4], the “Phytotoxicity: diameter of the lesion” value worked out at 5 mm.

Consider `CCCC(=O)NCCCC[C@@H](NC(=O)[C@H](CC(C)C)NC(=O)[C@H](CCCCN)NC(=O)[C@H](CCCCN)NC(C)=O)C(=O)N[C@@H](CCCCN)C(=O)N[C@@H](CCCCN)C(=O)N[C@H](C(=O)N[C@@H](CC(C)C)C(=O)N[C@@H](CCCCN)C(=O)N[C@@H](Cc1ccc(O)cc1)C(=O)N[C@@H](CC(C)C)C(N)=O)[C@@H](C)CC` [BP550, Ac-KKLk(COC3H7)KKILKYL-NH2], for which, in series [1], the “Hemolytic activity (%)” value is on record as 3%. Further, in series [2] (50 µM), the “Bactericidal activity Level” value was “Low (key: Very High: very high bactericidal activity (>2.5 log); High: high bactericidal activity (between 2.0 and 2.5 log); Moderate: a moderate activity (between 1.5 and 2.0 log); Low: low active (<1.5 log))”; the “Bactericidal activity Reduction in viability (Log N0/N)” value is on record as 0,00 Log N0/N. Further, the “LPS neutralization Ratio (treatment/NTC)” value in series [3] is on record as 1,09. Further, in series [4], the “Phytotoxicity: diameter of the lesion” value was 5 mm.
